Data published in patent publication US20060258598A1, “Alpha-keto carbonyl calpain inhibitors” (priority 2003, published 2006).

How the values were obtained:
human μ-calpain = target: T1, human μ-calpain (Homo sapiens, UniProt P07384); experiment: Enzymatic calpain inhibition assay; format: biochemical; details: substrate Suc-Leu-Tyr-AMC, read-out: Calp I IC50
T1 construct: purchased Calbiochem
T1 sequence (P07384 1-714): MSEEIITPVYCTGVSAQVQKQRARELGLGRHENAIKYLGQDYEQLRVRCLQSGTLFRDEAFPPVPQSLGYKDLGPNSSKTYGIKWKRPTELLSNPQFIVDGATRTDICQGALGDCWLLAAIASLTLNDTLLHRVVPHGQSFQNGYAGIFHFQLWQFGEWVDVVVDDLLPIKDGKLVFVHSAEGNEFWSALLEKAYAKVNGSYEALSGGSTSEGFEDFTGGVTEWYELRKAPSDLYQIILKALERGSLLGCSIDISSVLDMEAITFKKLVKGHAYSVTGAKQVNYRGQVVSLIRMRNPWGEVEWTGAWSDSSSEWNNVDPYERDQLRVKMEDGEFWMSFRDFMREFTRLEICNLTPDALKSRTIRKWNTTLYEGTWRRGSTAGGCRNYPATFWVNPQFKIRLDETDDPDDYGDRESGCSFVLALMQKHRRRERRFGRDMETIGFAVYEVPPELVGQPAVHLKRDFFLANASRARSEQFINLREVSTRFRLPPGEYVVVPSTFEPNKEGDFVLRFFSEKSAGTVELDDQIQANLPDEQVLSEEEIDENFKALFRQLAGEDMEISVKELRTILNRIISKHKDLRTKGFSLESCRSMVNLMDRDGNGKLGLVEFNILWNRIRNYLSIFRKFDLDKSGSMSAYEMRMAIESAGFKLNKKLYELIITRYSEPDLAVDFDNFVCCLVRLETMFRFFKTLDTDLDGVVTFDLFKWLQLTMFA
T1 sequence (P04632 1-268 partner): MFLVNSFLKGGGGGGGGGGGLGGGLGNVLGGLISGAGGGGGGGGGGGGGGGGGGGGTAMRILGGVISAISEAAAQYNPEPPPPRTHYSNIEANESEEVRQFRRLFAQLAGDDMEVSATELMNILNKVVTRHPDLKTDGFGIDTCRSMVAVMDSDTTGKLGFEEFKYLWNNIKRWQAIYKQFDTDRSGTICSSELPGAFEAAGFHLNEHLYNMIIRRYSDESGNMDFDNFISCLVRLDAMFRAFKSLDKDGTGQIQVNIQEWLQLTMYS
Procedure: The Ki value was also determined in some cases. These criteria were used to measure the inhibitory effect of the compounds (I) on calpain I, calpain II and cathepsin B.
Enzymatic Calpain Inhibition Assay
The inhibitory properties of calpain inhibitors are tested in 100 μl of a buffer containing 100 mM imidazole pH 7.5, 5 mM L-Cystein-HCl, 5 mM CaCl2, 250 μM of the calpain fluorogenic substrate Suc-Leu-Tyr-AMC (Sigma) (Sasaki et al., J. Biol. Chem., 1984, 259, 12489-12949) dissolved in 2.5 μl DMSO and 0.5 μg of human μ-calpain (Calbiochem). The inhibitors dissolved in 1 μl DMSO are added to the reaction buffer. The fluorescence of the cleavage product 7-amino-4-methylcoumarin (AMC) is followed in a SPECTRAmax GEMINI XS (Molecular Device) fluorimeter at λex=360 nm and λem=440 nm at 30° C. during 30 min at intervals of 30 sec in 96-well plates (Greiner). The initial reaction velocity at different inhibitor concentrations is plotted against the inhibitor concentration and the IC50 values determined graphically.

[1] = tested on: Primary fibroblasts from donors with Friedreich Ataxia (FRDA); experiment: BSO assay (cell viability under BSO-induced oxidative stress); format: cell-based, human; details: 24 h preincubation, 1 mM BSO; for EC50: Homo sapiens, Fibroblast
Procedure: Primary fibroblasts were derived from donors with molecular diagnosis for Friedreich Ataxia (FRDA) and control donors with no mitochondrial disease. Cell lines were obtained from Coriell Cell Repositories (Camden, N.J.; catalog numbers GM04078, GM08402 and GM08399 respectively). All cell types were diagnosed on the molecular level for intronic […] triplet repeat length of at least 400-450 repeats using a PCR-based method. Experiments were carried out as described in the literature (M. L. Jauslin et al., Human Mol. Genet., 2002, 11, 3055-3063): Cells were seeded in microtiter plates at a density of 4'000 cells per 100 μl in growth medium consisting of 25% (v/v) M199 EBS and 64% (v/v) MEM EBS without phenol red (Bioconcept, Allschwil, Switzerland) supplemented with 10% (v/v) fetal calf serum (PAA Laboratories, Linz, Austria), 100 U/ml penicillin, 100 μg/ml streptomycin (PAA Laboratories, Linz, Austria), 10 μg/ml insulin (Sigma, Buchs, Switzerland), 10 ng/ml EGF (Sigma, Buchs, Switzerland), 10 ng/ml bFGF (PreproTech, Rocky Hill, N.J.) and 2 mM glutamine (Sigma, Buchs, Switzerland). The cells were incubated in the presence of various test compounds for 24 h before addition of L-buthionine-(S,R)-sulfoximine (BSO) to a final concentration of 1 mM. Cell viability was measured after the first signs of toxicity appeared in the BSO-treated controls (typically after 16 to 48 h). The cells were stained for 60 min at room temperature in PBS with 1.2 μM calcein AM and 4 μM ethidium homodimer (Live/Dead assay, Molecular Probes, Eugene, Oreg.). Fluorescence intensity was measured with a Gemini Spectramax XS spectrofluorimeter (Molecular Devices, Sunnyvale, Calif.) using excitation and emission wavelengths of 485 nm and 525 nm respectively.

[2] = tested on: cellular calpains in C2C12 myoblasts; experiment: Calpain inhibition assay in C2C12 myoblasts; format: cell-based; details: 2 h incubation, calcium ionophore Br-A-23187, read-out: Calp I IC50 Myoblast
Procedure: Calpain Inhibition Assay in C2C12 Myoblasts
This assay is aimed at monitoring the ability of the substance to inhibit cellular calpains. C2C12 myoblasts are grown in 96-well plates in growth medium (DMEM, 20% foetal calf serum) until they reach confluency. The growth medium is then replaced by fusion medium (DMEM, 5% horse serum). 24 hours later the fusion medium is replaced by fusion medium containing the test substances dissolved in 1 μl DMSO. After 2 hours of incubation at 37° C. the cells are loaded with the calpain fluorogenic substrate Suc-Leu-Tyr-AMC at 400 μM in 50 μl of a reaction buffer containing 135 mM NaCl; 5 mM KCl; 4 mM CaCl2; 1 mM MgCl2; 10 mM Glucose; 10 mM HEPES pH 7.25 for 20 min at room temperature. The calcium influx, necessary to activate the cellular calpains, is evoked by the addition of 50 μl reaction buffer containing 20 μM of the calcium ionophore Br-A-23187 (Molecular Probes). The fluorescence of the cleavage product AMC is measured as described above during 60 min at 37° C. at intervals of 1 min. The IC50 values are determined as described above. Comparison of the IC50 determined in the enzymatic calpain inhibition assay to the IC50 determined in the C2C12 myoblasts calpain inhibiton assay, allows to evaluate the cellular uptake or the membrane permeability of the substance.

| SMILES | IC50 (human μ-calpain) [µM] | EC50 [1] [µM] | IC50 [2] [µM] | BSO EC50 [1] |
| --- | --- | --- | --- | --- |
| CCNC(=O)C(=O)[C@H](Cc1cccs1)NC(=O)[C@H](CC(C)C)NC(=O)CCCCC1CCSS1 (stereo partly drawn) [Example 147] | 0.04 | 1.5 | 2.5 |  |
| CCNC(=O)C(=O)[C@H](Cc1ccccc1)NC(=O)[C@@H](NC(=O)CCCCC1CCSS1)C(C)C (stereo partly drawn) [Example 138] | 0.08 | 10 | 3.5 |  |
| CCNC(=O)C(=O)[C@H](Cc1ccc(Cl)cc1)NC(=O)[C@@H](NC(=O)CCNC(=O)CCCCC1CCSS1)C(C)C (stereo partly drawn) [Example 172] | 0.04 | 3 | 30 |  |
| CCNC(=O)C(=O)[C@H](Cc1ccc(C#N)cc1)NC(=O)[C@H](CC(C)C)NC(=O)CCCCC1CCSS1 (stereo partly drawn) [Example 132] | 0.03 | 5 | 1.7 |  |
| CCNC(=O)C(=O)[C@H](Cc1ccc(Cl)cc1)NC(=O)[C@@H](NC(=O)CCCNC(=O)CCCCC1CCSS1)C(C)C (stereo partly drawn) [Example 174] | 0.02 | 6 | 2.5 |  |
| CCNC(=O)C(=O)[C@H](Cc1ccc(Cl)cc1)NC(=O)[C@H](CC(C)C)NC(=O)CNC(=O)CCCCC1CCS[S+]1[O-] (stereo partly drawn) [Example 177] | 0.009 | 6 | 2.5 |  |
| CCNC(=O)C(=O)[C@H](Cc1ccc(C)cc1)NC(=O)[C@@H](NC(=O)CCCCC1CCSS1)C(C)CC (stereo partly drawn) [Example 116] | 0.3 | 2 | 1 |  |
| CCNC(=O)C(=O)[C@H](Cc1ccc(C#N)cc1)NC(=O)[C@@H](NC(=O)CCCCC1CCS[S+]1[O-])C(C)C (stereo partly drawn) [Example 131] | 0.18 | 30 | 7.5 |  |
| CCNC(=O)C(=O)[C@H](Cc1ccc(Cl)cc1)NC(=O)[C@H](CC(C)C)NC(=O)CCCCC1CCS[S+]1[O-] (stereo partly drawn) [Example 16] | 0.05 | 4 | 2 |  |
| CCNC(=O)C(=O)[C@H](Cc1ccccc1)NC(=O)[C@H](CC(C)C)NC(=O)CNC(=O)CCCCC1CCSS1 (stereo partly drawn) [Example 210] | 0.04 | 10 | 4.5 |  |
| CCNC(=O)C(=O)[C@H](Cc1ccc(Cl)cc1)NC(=O)[C@H](CC(C)C)NC(=O)CNC(=O)CCCCC1CCSS1 (stereo partly drawn) [Example 176] | 0.04 | 20 | 2.5 |  |
| CCNC(=O)C(=O)[C@H](Cc1ccc(OC)cc1)NC(=O)[C@@H](NC(=O)c1ccc(NC(=O)CCCCC2CCSS2)cc1)C(C)C (stereo partly drawn) [Example 196] | > 1 | 2 | 0.4 |  |
| CCNC(=O)C(=O)[C@H](Cc1ccc(OC)cc1)NC(=O)[C@@H](NC(=O)CCCCC1CCSS1)C(C)C (stereo partly drawn) [Example 84] | 0.4 | 2 | 4 |  |
| CCNC(=O)C(=O)[C@H](Cc1ccc(Br)cc1)NC(=O)[C@@H](NC(=O)CNC(=O)CCCCC1CCS[S+]1[O-])C(C)C (stereo partly drawn) [Example 184] | 0.1 | 10 | 5.5 |  |
| CCNC(=O)C(=O)[C@H](Cc1ccc(Cl)cc1Cl)NC(=O)[C@H](CC(C)C)NC(=O)CCCCC1CCS[S+]1[O-] (stereo partly drawn) [Example 36] | 0.04 | 3 | 5 |  |
| CCNC(=O)C(=O)[C@H](Cc1ccccc1)NC(=O)[C@H](CC(C)C)NC(=O)CCCCC1CCS[S+]1[O-] (stereo partly drawn) [Example 142] | 0.1 | 3 | 20 |  |
| Cc1ccc(S(=O)(=O)CNC(=O)C(=O)[C@H](Cc2ccc(Cl)cc2)NC(=O)[C@@H](NC(=O)CCCCC2CCSS2)C(C)C)cc1 (stereo partly drawn) [Example 13] | 0.2 | 1 | 0.5 |  |
| CCNC(=O)C(=O)[C@H](Cc1ccc(C#N)cc1)NC(=O)[C@H](CC(C)C)NC(=O)CCCCC1CCS[S+]1[O-] (stereo partly drawn) [Example 133] | 0.05 | 15 | 2.5 |  |
| CCNC(=O)C(=O)[C@H](Cc1ccc(O)cc1)NC(=O)[C@H](CC(C)C)NC(=O)CCCCC1CCSS1 (stereo partly drawn) [Example 82] | 0.04 | 15 | 10 |  |
| CCNC(=O)C(=O)[C@H](Cc1ccc(Cl)cc1)NC(=O)[C@@H](NC(=O)CCNC(=O)CCCCC1CCS[S+]1[O-])C(C)C (stereo partly drawn) [Example 173] | 0.2 | 25 | 40 |  |
| Cc1ccc(S(=O)(=O)CNC(=O)C(=O)[C@H](Cc2ccc(Cl)cc2)NC(=O)[C@H](CC(C)C)NC(=O)CCCCC2CCSS2)cc1 (stereo partly drawn) [Example 25] | 0.12 | 2 | 1.5 |  |
| CCNC(=O)C(=O)[C@H](Cc1ccc(Cl)cc1)NC(=O)[C@@H](NC(=O)CCCCC1SC[C@@H]2NC(=O)N[C@H]12)C(C)C (stereo partly drawn) [Example 159] | 0.1 |  | 5 | inactive |
| CCNC(=O)C(=O)[C@H](Cc1ccc(OC)cc1)NC(=O)[C@H](CC(C)C)NC(=O)CCCCC1CCS[S+]1[O-] (stereo partly drawn) [Example 95] | 0.035 | 10 | 2.5 |  |
| CCNC(=O)C(=O)[C@H](Cc1ccc(Cl)cc1)NC(=O)[C@H](CC(C)(C)C)NC(=O)CCCCC1CCS[S+]1[O-] (stereo partly drawn) [Example 28] | 0.18 |  | 4 | inactive |
| CCNC(=O)C(=O)[C@H](Cc1ccc([N+](=O)[O-])cc1)NC(=O)[C@H](CC(C)C)NC(=O)CCCCC1CCSS1 (stereo partly drawn) [Example 136] | 0.02 |  | 8 | inactive |
| CCNC(=O)C(=O)[C@H](Cc1ccccc1)NC(=O)[C@H](CC(C)(C)C)NC(=O)CCCCC1CCS[S+]1[O-] (stereo partly drawn) [Example 144] | 0.08 | 7 | 5 |  |
